Data reported in the NIST ThermoML archive (doi:10.1016/j.jct.2015.05.006).

Legend:
[1] = relative permittivity at various frequencies (dimensionless); xn = mol fraction of the nth substance listed; details: Liquid, Frequency=1 MHz, Parallel plate capacitor
[2] = xn = mol fraction of the nth substance listed; details: Liquid, Vibrating tube method

COCCOC [1,2-dimethoxyethane] + C1CCCCC1
96.6 kPa
Details | mass density, [2] [kg/m3] | relative permittivity, [1]
288.15 K, x2 = 0 | 872.06 | 7.41
288.15 K, x2 = 0.0459 | – | 7.02
288.15 K, x2 = 0.0497 | 865.63 | –
288.15 K, x2 = 0.1021 | 859.14 | –
288.15 K, x2 = 0.1034 | – | 6.56
288.15 K, x2 = 0.1974 | 847.96 | –
288.15 K, x2 = 0.2009 | – | 5.84
288.15 K, x2 = 0.3013 | – | 5.17
288.15 K, x2 = 0.3031 | 836.42 | –
288.15 K, x2 = 0.4026 | 826.35 | –
288.15 K, x2 = 0.4027 | – | 4.55
288.15 K, x2 = 0.4967 | 817.52 | –
288.15 K, x2 = 0.5031 | – | 3.99
288.15 K, x2 = 0.5998 | 808.62 | 3.51
288.15 K, x2 = 0.6961 | 801.06 | –
288.15 K, x2 = 0.7015 | – | 3.06
288.15 K, x2 = 0.7953 | – | 2.69
288.15 K, x2 = 0.8006 | 793.78 | –
288.15 K, x2 = 0.9017 | – | 2.33
288.15 K, x2 = 0.9033 | 787.7 | –
288.15 K, x2 = 0.9494 | – | 2.19
288.15 K, x2 = 0.9514 | 785.33 | –
298.15 K, x2 = 0 | 861.17 | 7.07
298.15 K, x2 = 0.0446 | 855.02 | –
298.15 K, x2 = 0.0475 | – | 6.7
298.15 K, x2 = 0.0978 | 848.89 | –
298.15 K, x2 = 0.098 | – | 6.31
298.15 K, x2 = 0.1963 | 837.39 | –
298.15 K, x2 = 0.2057 | – | 5.58
298.15 K, x2 = 0.3034 | – | 4.96
298.15 K, x2 = 0.3038 | 825.79 | –
298.15 K, x2 = 0.3952 | – | 4.43
298.15 K, x2 = 0.4024 | 815.96 | –
298.15 K, x2 = 0.5013 | 806.83 | –
298.15 K, x2 = 0.5077 | – | 3.84
298.15 K, x2 = 0.6014 | – | 3.41
298.15 K, x2 = 0.6054 | 798.09 | –
298.15 K, x2 = 0.7018 | 790.78 | –
298.15 K, x2 = 0.7093 | – | 2.96
298.15 K, x2 = 0.7994 | – | 2.63
298.15 K, x2 = 0.8023 | 784.01 | –
298.15 K, x2 = 0.8965 | 778.59 | –
298.15 K, x2 = 0.9016 | – | 2.3
298.15 K, x2 = 0.9498 | 776 | –
298.15 K, x2 = 0.952 | – | 2.16
308.15 K, x2 = 0 | 850.13 | 6.75
308.15 K, x2 = 0.0454 | 844.13 | –
308.15 K, x2 = 0.0456 | – | 6.42
308.15 K, x2 = 0.0969 | 838.11 | –
308.15 K, x2 = 0.0976 | – | 6.05
308.15 K, x2 = 0.1954 | 826.9 | –
308.15 K, x2 = 0.1983 | – | 5.41
308.15 K, x2 = 0.299 | – | 4.83
308.15 K, x2 = 0.2993 | 815.83 | –
308.15 K, x2 = 0.3959 | – | 4.29
308.15 K, x2 = 0.4037 | 805.56 | –
308.15 K, x2 = 0.4993 | – | 3.77
308.15 K, x2 = 0.5042 | 796.44 | –
308.15 K, x2 = 0.6002 | – | 3.32
308.15 K, x2 = 0.6072 | 787.93 | –
308.15 K, x2 = 0.6995 | 781.05 | –
308.15 K, x2 = 0.7005 | – | 2.93
308.15 K, x2 = 0.8004 | 774.34 | –
308.15 K, x2 = 0.8012 | – | 2.58
308.15 K, x2 = 0.902 | – | 2.27
308.15 K, x2 = 0.904 | 768.62 | –
308.15 K, x2 = 0.9514 | – | 2.14
308.15 K, x2 = 0.9535 | 766.31 | –

COCCOC [1,2-dimethoxyethane] + CCCCCCCCCCCC
97 kPa
Details | mass density, [2] [kg/m3] | relative permittivity, [1]
288.15 K, x2 = 0 | 872.06 | 7.41
288.15 K, x2 = 0.05 | – | 6.6
288.15 K, x2 = 0.0501 | 856.95 | –
288.15 K, x2 = 0.101 | 843.87 | –
288.15 K, x2 = 0.1013 | – | 5.92
288.15 K, x2 = 0.2007 | – | 4.89
288.15 K, x2 = 0.2009 | 823.2 | –
288.15 K, x2 = 0.3011 | 807.11 | –
288.15 K, x2 = 0.3016 | – | 4.13
288.15 K, x2 = 0.402 | – | 3.57
288.15 K, x2 = 0.4022 | 794.1 | –
288.15 K, x2 = 0.5014 | 783.69 | –
288.15 K, x2 = 0.5015 | – | 3.15
288.15 K, x2 = 0.6016 | – | 2.81
288.15 K, x2 = 0.6019 | 774.99 | –
288.15 K, x2 = 0.6998 | – | 2.53
288.15 K, x2 = 0.7001 | 767.94 | –
288.15 K, x2 = 0.8049 | 761.62 | –
288.15 K, x2 = 0.8051 | – | 2.33
288.15 K, x2 = 0.9011 | 756.69 | –
288.15 K, x2 = 0.9019 | – | 2.16
288.15 K, x2 = 0.9514 | 754.42 | –
288.15 K, x2 = 0.9515 | – | 2.1
298.15 K, x2 = 0 | 861.17 | 7.07
298.15 K, x2 = 0.0499 | 846.45 | –
298.15 K, x2 = 0.05 | – | 6.31
298.15 K, x2 = 0.1013 | 833.6 | –
298.15 K, x2 = 0.102 | – | 5.66
298.15 K, x2 = 0.2014 | – | 4.71
298.15 K, x2 = 0.2016 | 813.45 | –
298.15 K, x2 = 0.3016 | – | 4
298.15 K, x2 = 0.3019 | 797.83 | –
298.15 K, x2 = 0.4011 | – | 3.48
298.15 K, x2 = 0.4015 | 785.4 | –
298.15 K, x2 = 0.5059 | 774.85 | –
298.15 K, x2 = 0.5061 | – | 3.06
298.15 K, x2 = 0.6021 | 766.88 | –
298.15 K, x2 = 0.6047 | – | 2.75
298.15 K, x2 = 0.7021 | 760.01 | –
298.15 K, x2 = 0.7033 | – | 2.51
298.15 K, x2 = 0.8048 | 754.06 | –
298.15 K, x2 = 0.8055 | – | 2.31
298.15 K, x2 = 0.9024 | – | 2.15
298.15 K, x2 = 0.9025 | 749.21 | –
298.15 K, x2 = 0.9491 | 747.21 | –
298.15 K, x2 = 0.9498 | – | 2.09
308.15 K, x2 = 0 | 850.13 | 6.75
308.15 K, x2 = 0.0495 | 835.93 | –
308.15 K, x2 = 0.05 | – | 6.04
308.15 K, x2 = 0.0982 | 824.01 | –
308.15 K, x2 = 0.1018 | – | 5.44
308.15 K, x2 = 0.2021 | 803.62 | –
308.15 K, x2 = 0.2026 | – | 4.53
308.15 K, x2 = 0.2982 | 789.08 | –
308.15 K, x2 = 0.3027 | – | 3.87
308.15 K, x2 = 0.4018 | 776.58 | –
308.15 K, x2 = 0.4043 | – | 3.38
308.15 K, x2 = 0.5024 | 766.76 | –
308.15 K, x2 = 0.505 | – | 3
308.15 K, x2 = 0.6046 | 758.6 | –
308.15 K, x2 = 0.6068 | – | 2.7
308.15 K, x2 = 0.6951 | 752.57 | –
308.15 K, x2 = 0.7013 | – | 2.48
308.15 K, x2 = 0.8031 | 746.52 | –
308.15 K, x2 = 0.806 | – | 2.28
308.15 K, x2 = 0.8975 | – | 2.14
308.15 K, x2 = 0.899 | 741.95 | –
308.15 K, x2 = 0.9502 | 739.81 | –
308.15 K, x2 = 0.9512 | – | 2.07
